This note sets out measurements from ChEMBL document CHEMBL1201862, “PubChem BioAssay data set” (2004).

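These data come from cells grown in 96-well plates and exposed to compound for 48 hours at five concentrations. Here, GI50 denotes the concentration required for 50% inhibition of growth.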 The source made the active and inactive calls. Rule as the data show it: active = GI50 up to about 1.1 µM and inactive = higher.

Holding throughout (assay): NCI tumour cell line growth inhibition, 48 h
Test [1] relates to 786-0.
Test [2] relates to A498.
The test system of test [3] is ACHN.
Test [4] concerns CCRF-CEM.
The subject of test [5] is EKVX.
Test [6] concerns HCT-15.
In test [7] the test system is HOP-92.
In test [8] the test system is MDA-N.
Test [9] deals with Malme-3M.
In test [10] the test system is NCI-H23.
Test [11] has as its system NCI-H460.
Test [12] concerns OVCAR-3.
Test [13] relates to RXF 393.
Test [14] has as its system SK-OV-3.
Test [15] concerns SNB-19.
Test [16] relates to SNB-75.
Test [17] has as its system T47D.
Test [18] concerns TK-10.
The subject of test [19] is U-251.

With `COc1ccc(CC(N)c2ccc(OC)cc2)cc1` (stereo not drawn), the GI50 was > 100 µM (inactive) in [1]; > 100 µM (inactive) in test [2]; > 100 µM (inactive) in test [3]; 70.5 µM (inactive) in test [4]; > 100 µM (inactive) in [5]; more than 100 µM in [6]. The GI50 is 29.4 µM (inactive) in test [7]; 36.8 µM (inactive) in test [8]; 37.4 µM (inactive) in [9]; > 100 µM (inactive) in test [10]; 39.9 µM (inactive) in test [11]; > 100 µM (inactive) in test [12]. Further, the GI50 was 72.1 µM (inactive) in test [13]; 71.4 µM (inactive) in [14]; > 100 µM (inactive) in test [15]; 77.1 µM (inactive) in [16]; 46.3 µM (inactive) in [17]; > 100 µM (inactive) in test [18]. For the same compound, in [19], the GI50 was 95.3 µM (inactive).
Take `O=C(O)c1ccccc1/C=N/N=C1NCCN1`: the GI50 was > 100 µM (inactive) in test [1]; 26.8 µM (inactive) in [2]; 98.9 µM (inactive) in [3]; > 100 µM (inactive) in test [4]; > 100 µM (inactive) in [5]; more than 100 µM in test [6]. Also, the GI50 in test [7] was 22.7 µM (inactive); in test [8], > 100 µM (inactive); in test [9] it was 88.1 µM (inactive); in test [10], > 100 µM (inactive); in test [11], > 100 µM (inactive); in test [12], > 100 µM (inactive). For the same compound, the GI50 in test [13] is > 100 µM (inactive); in test [14], 61.5 µM (inactive); in [15], > 100 µM (inactive); in test [16], > 100 µM (inactive); in test [17] it was > 100 µM (inactive); in [18], 46.8 µM (inactive). Besides, the GI50 in test [19] was > 100 µM (inactive).
In the case of `CC1OC(OC2C(O)COC(OC3C(C)OC(OC4C(OC(=O)[C@]56CCC(C)(C)C[C@@H]5C5=CCC7[C@@]8(C)C[C@H](O)[C@H](OC9OC(CO)C(O)C(O)C9O)[C@@](C)(CO)[C@@H]8CC[C@@]7(C)[C@]5(C)CC6)OCC(O)C4O)C(O)C3O)C2O)C(O)C(O)C1O` (stereo partly drawn), the GI50 was 18.1 µM (inactive) in test [1]; 19.5 µM (inactive) in test [2]; 21.2 µM (inactive) in test [3]; 20.6 µM (inactive) in test [4]; 16.5 µM (inactive) in test [5]; 20.9 µM in test [6]. Moreover, the GI50 in test [7] was 23.7 µM (inactive); in test [8], 20.5 µM (inactive); in [9], 33.4 µM (inactive); in test [10], 28.2 µM (inactive); in test [11], 20.5 µM (inactive); in test [12], 18.1 µM (inactive). For the same compound, the GI50 was 15.6 µM (inactive) in test [13]; 19.8 µM (inactive) in [14]; 21.8 µM (inactive) in test [15]; 20 µM (inactive) in [16]; 22 µM (inactive) in test [17]; 17.1 µM (inactive) in test [18]. Further, the GI50 in test [19] was 23.9 µM (inactive).
On to `CCN1CCc2sc3nc(S)n(C)c(=O)c3c2C1`, for which the GI50 in [1] is > 100 µM (inactive); in [2], > 100 µM (inactive); in [3] it was > 100 µM (inactive); in [4] it was < 0.01 µM (active); in [5], > 100 µM (inactive); in test [6], more than 100 µM. Besides, the GI50 in test [7], in [8], in test [9], in test [10], in test [11] and in test [12] was > 100 µM (inactive) each time. Moreover, the GI50 in test [13], in test [14], in test [15], in test [16], in [17] and in [18] was > 100 µM (inactive) in each case. Also, the GI50 in test [19] was > 100 µM (inactive).
Consider `CCOC(=O)C12CCC(c3c(C)cccc3C)(O1)C(C(=O)OC)=C2C(=O)OC` (stereo not drawn), for which the GI50 in test [1] is 3.08 µM (inactive); in test [2] it was 2.14 µM (inactive); in [3], > 8.49 µM (inactive); in [4], 3.06 µM (inactive); in test [5], > 7.18 µM (inactive); in [6], 4.69 µM. In addition, the GI50 in test [7] was 4.24 µM (inactive); in [8], 0.484 µM (active); in [9] it was 1.05 µM (active); in test [10], 3.4 µM (inactive); in [11], 2.23 µM (inactive); in test [12], 0.889 µM (active). Also, the GI50 was 4.71 µM (inactive) in [13]; 5.09 µM (inactive) in test [14]; > 9.64 µM (inactive) in [15]; 3.64 µM (inactive) in [16]; 6.35 µM (inactive) in test [17]; > 10 µM (inactive) in test [18]. Also, the GI50 in test [19] is 3.76 µM (inactive).
Regarding `O=C1CS[C@@](CC(c2ccc(Cl)cc2)c2ccc(Cl)cc2)(c2ccc(Cl)cc2)N1`, the GI50 in test [1] was 9.66 µM (inactive); in test [2] it was 11.6 µM (inactive); in [3] it was 11.2 µM (inactive); in [4], 4.71 µM (inactive); in test [5], 16.9 µM (inactive); in test [6], 10.8 µM. Moreover, the GI50 is 15.3 µM (inactive) in [7]; 8.13 µM (inactive) in [8]; 21.6 µM (inactive) in [9]; 9.75 µM (inactive) in test [10]; 9.1 µM (inactive) in [11]; 6.21 µM (inactive) in [12]. The GI50 in [13] is 3.56 µM (inactive); in test [14], 45 µM (inactive); in test [15] it was 33.2 µM (inactive); in test [16], 33.5 µM (inactive); in test [17], 4.28 µM (inactive); in test [18] it was 51.3 µM (inactive). Moreover, the GI50 in test [19] is 10.2 µM (inactive).
For `Cc1ccc(Nc2cc(=O)[nH]c(=S)[nH]2)cc1`, the GI50 is > 100 µM (inactive) in [1]; > 100 µM (inactive) in test [2]; > 100 µM (inactive) in test [3]; > 100 µM (inactive) in [4]; > 100 µM (inactive) in test [5]; more than 100 µM in [6]. The GI50 in test [7], in test [8], in test [9], in test [10], in test [11] and in test [12] was > 100 µM (inactive) in each case. For the same compound, the GI50 in test [13], in [14], in [15], in test [16], in [17] and in [18] was > 100 µM (inactive) each time. Also, the GI50 in [19] was > 100 µM (inactive).
